Measured values from EP0393104B1, “MEASUREMENT OF PGE 2 (PROSTAGLANDIN E 2) LEVELS IN PATIENTS WITH CHRONIC INFLAMMATORY BOWEL DISEASE” (priority 1987, dated 1989).

Experiments:
[1] = tested on: ulcerative proctosigmoiditis; type: in vivo, patients
Protocol: For patients maintained on SAZ (1 g b.i.d.) this treatment was kept unchanged throughout the trial. No other drugs were given.
(§1) The study was carried out as a block-randomized, double-blind trial. Before entry, clinical disease activity was assessed, and equilibrium in vivo dialysis of rectum was performed before the assessment of endoscopic and histologic disease activity. […] Primary stratification was done for patients already on maintenance treatment with SAZ. At day 15 the equilibrium in vivo dialysis of rectum was repeated, and clinical, endoscopic, and histologic activities were reassessed. Patients in complete clinical and endoscopic remission discontinued treatment with enemas, whereas the remainder continued therapy for another 14 days. In all cases equilibrium in vivo dialysis of rectum and assessment of disease activity were repeated at day 29. Withdrawal criteria included intolerance to treatment or deterioration (severe disease, C3) requiring systemic glucocorticoids.
The clinical activity was based on a diary in which the number of bowel movements and the presence or absence of blood were registered by the patient and the objective findings were registered by the investigator. To minimize variation among observers each patient was examined on all study days by the same investigator, who was unaware of the results of the rectal dialyses.

PGE2 = assay: Equilibrium in vivo dialysis of rectum with radioimmunoassay of PGE2 (enema trial); set-up: species or system patients; settings: for Concentrations of PGE2 in rectal lumen: median, enema groups irrespective of SAZ (+/-), SAZ line = no enema, with SAZ maintenance; for effect of treatment with enemas on PGE2 concentrations in the rectal lumen: whole group, active UC, 2-4 weeks, 5-ASA p>0.5, prednisolone p<0.05 (Wilcoxon)
Protocol: as §1
In vivo dialysis of rectum was performed after insertion of a 12-cm-long dialysis bag (volume 4 ml; Visking seamless cellulose tubing 8/32 filled with Rheomacrodex@; Pharmacia, Uppsala, Sweden) containing 10% dextran (mean mol wt 40,000) in saline into the emptied rectum. To obtain equilibrium with the fluid covering the surface of rectal mucosa, the dialysis bag was left for 4 h before its contents were emptied into a test tube, which was stored immediately at -20°C (rectal dialysate) for analysis within 2 wk.
Prostaglandin E2 was measured as previously described in detail (K. Bukhave, J. Rask-Madsen J, 'Prostaglandin E2 in jejunal fluids and its potential diagnostic value for selecting patients with indomethacin-sensitive diarrhoea', 1981 European Journal of Clinical Investigation, 11:191-7) by a radioimmunologic method validated by gas chromatography-mass spectrometry (K. Bukhave, K Green, J. Rask-Madsen, 'Comparison of radioimmunological determinations with gas chromatography mass spectrometry dosage', 1983 Biomedical Mass Spectrometry, 10:265-8). The method included purification by extraction with ethylacetate/cyclo- hexane (1:1) and chromatography on microcolumns of Sephadex LH-20 (Pharmacia AB, Sweden) before performing the radioimmunoassay itself on the eluate fraction containing PGE2.

[2] = number of patients, enemas once daily 2-4 wk, 5-ASA n=13, prednisolone n=11
[3] = number of these patients on additional SAZ maintenance (figure in brackets)
[4] = clinical activity 2-3 (moderate-severe)
[5] = endoscopic activity 0 (inactive)
[6] = endoscopic activity 2 (moderate)

SMILES	difficulties in retaining the enemas ([1]; human, in vivo)	Outcome of treatment: Unchanged or worse [1, 2]	Outcome of treatment: Unchanged or worse (on sulfasalazine) [1, 3]	Concentrations of PGE2 in rectal lumen (PGE2; clinical activity 0 (inactive))	Concentrations of PGE2 in rectal lumen (PGE2; clinical activity 1 (mild))	Concentrations of PGE2 in rectal lumen (PGE2; [4])	Concentrations of PGE2 in rectal lumen (PGE2; [5])	Concentrations of PGE2 in rectal lumen (PGE2; endoscopic activity 1 (mild))	Concentrations of PGE2 in rectal lumen (PGE2; [6])	Concentrations of PGE2 in rectal lumen (PGE2; endoscopic activity 3 (severe))	PGE2 levels in the rectal lumen (PGE2; only those patients responding to treatment)	effect of treatment with enemas on PGE2 concentrations in the rectal lumen (PGE2)	Outcome of treatment: Clinical and endoscopic remission ([1]; number of patients, enemas once daily 2-4 wk, 5-ASA 1000 mg (n=13), prednisolone 25 mg (n=11))	Outcome of treatment: Clinical but not endoscopic remission [1, 2]	Outcome of treatment: Clinical and endoscopic remission (on SAZ) ([1]; number of these patients on additional SAZ maintenance 2 g/day (figure in brackets))	Outcome of treatment: Clinical but not endoscopic remission (on SAZ) [1, 3]
Nc1ccc(O)c(C(=O)O)c1 [5-ASA, 5-amino-salicylic acid]	2	6	3	0.71(n=7) (0.18-6.0) ng/ml	24(n=5) (2.5-58) ng/ml	33(n=8) (14-120) ng/ml	0.75(n=3) (0.18-3.7) ng/ml	5.5(n=4) (0.29-6.2) ng/ml	24(n=8) (2.5-58) ng/ml	31(n=5) (20-120) ng/ml	decreased toward control levels	No significant effects	–	–	–	–
C[C@]12C=CC(=O)C=C1CC[C@@H]1[C@@H]2[C@@H](O)C[C@@]2(C)[C@H]1CC[C@]2(O)C(=O)CO [Prednisolone, prednisolone]	–	2 (2)	2 (2)	1.6(n=9) (0.16-5.0) ng/ml	5.4(n=6) (0.58-42) ng/ml	9.5(n=3) (5.9-12) ng/ml	0.82(n=8) (0.16-5.0) ng/ml	2.8(n=7) (0.57-3.9) ng/ml	10.5(n=3) (5.5-42) ng/ml	–	–	inhibited PGE2 concentrations significantly	8	1 (1)	3	1 (1)
